From the NIST ThermoML archive (doi:10.1021/je800984q)

Tests used:
[1] = Liquid; for viscosity / mass density: 298.15 K, 101 kPa; for viscosity: Capillary tube (Ostwald / Ubbelohde) method; for mass density: Vibrating tube method
[2] = xn = mol fraction of the nth substance listed; details: 298.15 K, 101 kPa, Liquid; for viscosity: Capillary tube (Ostwald / Ubbelohde) method; for mass density: Vibrating tube method

C1CC2C3CCC(C3)C2C1 (stereo not given) [tricyclo[5.2.1.0(2,6)]decane]
[1]
Details	mass density [kg/m3]	viscosity [mPa·s]
–	931.4	2.739

[1]
Details	vapor or sublimation pressure [kPa]
393.98 K	15
396.02 K	16.6
401.42 K	20.6
413.88 K	30.3
418.34 K	34.8
426.86 K	44.9
431.22 K	50.7
434.56 K	55.8
436.68 K	59.2
439.31 K	63.2
441.13 K	66.6
442.7 K	69.5
442.81 K	69.8
444.37 K	72.9
445.73 K	75.1
446.13 K	75.9
450.08 K	83.9
457.66 K	101.1

CCOC(=O)OCC [diethyl carbonate]
[1]
Details	mass density [kg/m3]	viscosity [mPa·s]
–	969	0.764

[1]
Details	vapor or sublimation pressure [kPa]
343.77 K	13.8
351.67 K	19.3
355.63 K	22.7
358.29 K	26
363.84 K	31.3
366.98 K	35.2
369.75 K	39.1
372.28 K	42.8
374.61 K	46.5
377.05 K	50.5
379.59 K	55
381.49 K	58.8
383.37 K	63.1
383.57 K	63.5
386.18 K	68.5
387.61 K	72.8
390.35 K	78.5
392.39 K	84
393.93 K	88.2
395.72 K	93.4
398.28 K	101.5

CCOC(=O)OCC [diethyl carbonate] + C1CC2C3CCC(C3)C2C1
[2], x1 = 1
Details	mass density [kg/m3]	viscosity [mPa·s]
–	969	0.764

C1CC2C3CCC(C3)C2C1 (stereo not given) [tricyclo[5.2.1.0(2,6)]decane] + CCOC(=O)OCC
[2]
Details	mass density [kg/m3]	viscosity [mPa·s]
x2 = 0	931.4	2.739
x2 = 0.1141	933.1	2.14
x2 = 0.2235	935.3	1.757
x2 = 0.3303	938.1	1.496
x2 = 0.4355	941.3	1.292
x2 = 0.536	944.8	1.149
x2 = 0.6336	948.8	1.026
x2 = 0.7288	953.4	0.938
x2 = 0.8207	958.2	0.861
x2 = 0.9109	963.5	0.814
